# Tests used:
# Format in all cases: binding
# cow CD23 CRD [1] = biological target: T1, cow CD23 CRD (Bos taurus, UniProt E1BIQ4); test: solid-phase competition with horseradish peroxidase reporter, immobilized biotin-tagged CRD; also crystal structure at […] Å (untagged CRD)
# T1 construct: gene FCER2; untagged for crystals; C-terminal biotinylation tag LNDIFEAQKIEWHE for solid-phase assays
# T1 sequence (E1BIQ4 169-302): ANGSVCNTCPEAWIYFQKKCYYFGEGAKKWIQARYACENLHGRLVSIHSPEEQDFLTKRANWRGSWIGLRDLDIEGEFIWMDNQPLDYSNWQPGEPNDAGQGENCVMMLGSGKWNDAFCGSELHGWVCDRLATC
# cow CD23 CRD [2] = biological target: T1, cow CD23 CRD; test: solid-phase competition with horseradish peroxidase reporter, immobilized biotin-tagged CRD; conditions: pH 7.8, 2.5 mM CaCl2, 150 mM NaCl, 4 °C, competitive, KI approximates KD
# Excerpt: solid-phase competition with horseradish peroxidase reporter, immobilized biotin-tagged CRD on cow CD23 CRD | The three monosaccharides with highest affinity are mannose, fucose, and GlcNAc
# mouse CD23 CRD = biological target: T2, mouse CD23 CRD (Mus musculus, UniProt P20693); test: as above; conditions: pH 7.8, 2.5 mM CaCl2, 150 mM NaCl, 4 °C, competitive, KI approximates KD
# T2 construct: gene Fcer2
# T2 sequence (P20693 185-298 limits assumed): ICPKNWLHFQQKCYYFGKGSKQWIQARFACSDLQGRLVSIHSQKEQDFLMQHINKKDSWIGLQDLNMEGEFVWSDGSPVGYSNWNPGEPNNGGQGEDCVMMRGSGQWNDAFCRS
# cow CD23 CRD [3] = biological target: T1, cow CD23 CRD; test: as above; conditions: pH 7.8, 2.5 mM CaCl2, 150 mM NaCl, 4 °C; competitive
# [4] = may have been tested as methyl glycoside
Ki (cow CD23 CRD [2]),Ki (mouse CD23 CRD),Structure (SMILES),also measured
–,–,CO[C@H]1O[C@H](CO)[C@@H](O)[C@H](O)[C@@H]1O [α-methyl mannoside],Ki (cow CD23 CRD [1]): 1600 µM
–,–,C[C@@H]1OC(O)[C@@H](O)[C@H](O)[C@@H]1O (some centres unmarked) [fucose],Ki (cow CD23 CRD [2]; [4]): 1800 µM; Ki (mouse CD23 CRD; [4]): 8400 µM
–,–,CC(=O)N[C@H]1[C@H](O[C@H]2[C@H](O)[C@@H](NC(C)=O)C(O)O[C@@H]2CO)O[C@H](CO)[C@@H](O[C@@H]2O[C@H](CO[C@H]3O[C@H](CO[C@H]4O[C@H](CO)[C@@H](O)[C@H](O)[C@@H]4O[C@H]4O[C@H](CO)[C@@H](O)[C@H](O)[C@@H]4O)[C@@H](O)[C@H](O[C@H]4O[C@H](CO)[C@@H](O)[C@H](O)[C@@H]4O[C@H]4O[C@H](CO)[C@@H](O)[C@H](O)[C@@H]4O)[C@@H]3O)[C@@H](O)[C@H](O[C@H]3O[C@H](CO)[C@@H](O)[C@H](O)[C@@H]3O[C@H]3O[C@H](CO)[C@@H](O)[C@H](O)[C@@H]3O[C@H]3O[C@H](CO)[C@@H](O)[C@H](O)[C@@H]3O)[C@@H]2O)[C@@H]1O (some centres unmarked) [Man9GlcNAc2],ratio of affinities relative to α-methyl mannoside (cow CD23 CRD [3]): 240 ± 50 fold
1600 µM,5700 µM,OC[C@H]1OC(O)[C@@H](O)[C@@H](O)[C@@H]1O (some centres unmarked) [mannose],–
1100 µM,5200 µM,CC(=O)N[C@H]1C(O)O[C@H](CO)[C@@H](O)[C@@H]1O (some centres unmarked) [GlcNAc],–
